pIC50: −log10 of the molar value.
Assays:
[1] = Plasma concentrations from in-vivo tests and PK parameters; set-up: AUC(0-tlast): unit not given here; settings: mouse; for unbound exposure in comparison with comparative example V1: after single oral administration, by AUC(0-tlast),norm,u; for AUC(0-tlast),norm,u: AUCnorm multiplied by fu; for AUC(0-tlast),norm: dose-normalized; for tlast: last time point with measurable plasma concentration; for Plasma concentration: 50 mg/kg p.o.
Method: After thawing and shaking, the samples are centrifuged for 20 minutes at 4° C. and approx. 2000×g. An aliquot of the supernatant (approx. 25 μL) is measured by LCMS analysis. If high plasma or tissue levels are expected (>ULOQ, as a rule 5 μM) the precipitated samples are additionally diluted 1:100 with ACN/H2O (80/20, v/v)+internal standard and corresponding aliquots are measured by LCMS. For this, the test substance is added in 5-9 concentrations, corresponding to the determination range of the analytical method, to a control matrix (calibration samples), e.g. 0, 1, 10, 100, 1000, 5000 nM. For this, a portion of solid is weighed and is dissolved in DMSO (as a rule 1 mM stock solution). This stock solution is further diluted 1:10 with DMSO ([…]). Then 1:5 (v/v) ACN+internal standard (soln. A) is added to the calibration samples and processed further as with the plasma samples. The calibration series in solvent takes place similarly to the plasma calibration described. The test substance is in this case prepared in ACN/H2O (50/50, v/v) and then 1:5 (v/v) ACN+internal standard is added to the samples. This series serves for calibration of the diluted samples. The following PK parameters are calculated from these concentration-time profiles obtained: […]
AUC(0-tlast),norm multiplied by the free fraction (fu) of the species investigated.

[2] = In-vivo tolerability in the mouse; set-up: species or system female NMRI nude mice; settings: for MTD / MTD at 5 days: female, NMRI nude, mouse, in vivo, oral; for MTD: once daily, read-out: maximum tolerated treatment dose (MTD), single daily treatment; for MTD at 5 days: twice daily, after 5 days of treatment, read-out: maximum tolerated treatment dose (MTD), twice daily administration; for Drug-induced deaths (day): 3 animals per group; for tolerability at all doses tested: treatment once or twice daily
Method: The substances were formulated in NMP/PEG300 (1/9 V/V). They were administered orally, in an amount of 10 ml/kg, once or twice daily for a period of 5 to 7 days to female NMRI nude mice (6-8 weeks old; 3 animals per group). Body weight and mortality of the mice were monitored daily up to the end of the study. Toxicity was defined as follows: ≧10% substance-induced deaths or ≧20% weight loss.

MDA-MB-231 cells = assay: Cellular proliferation assay (alamarBlue) MDA-MB-231; assay type: cell-based; settings: Homo sapiens, 96 hours, read-out: Breast MDA-MB-231 IC50
Method: (§1) In accordance with the invention, the ability of the substances to inhibit the proliferation of various cell lines was determined. Cell viability was determined by means of the alamarBlue® reagent (Invitrogen). […] After incubation overnight at 37° C., the fluorescence values were determined (CI values). […] Then the fluorescence values were determined (CO values).
(§2) The substances were investigated in the cell lines in Table 1, which for example represent the stated indications: […]

MOLP-8 cells = assay: Cellular proliferation assay (alamarBlue) MOLP-8; assay type: cell-based; settings: Homo sapiens, 120 hours, read-out: Multiple myeloma MOLP-8 IC50
Method: as §1, §2

HeLa-MaTu cells = assay: Cellular proliferation assay (alamarBlue) HeLa-MaTu; assay type: cell-based; settings: 96 hours, read-out: Cervix HeLa-MaTu IC50
Method: as §1, §2

LNCaP cells = assay: Cellular proliferation assay (alamarBlue) LNCaP; assay type: cell-based; settings: Homo sapiens, 168 hours, read-out: Prostate LNCaP IC50
Method: as §1, §2

LAPC-4 cells = assay: Cellular proliferation assay (alamarBlue) LAPC-4; assay type: cell-based; settings: Homo sapiens, LAPC4, 168 hours, read-out: Prostate LAPC-4 IC50
Method: as §1, §2

VCaP cells = assay: Cellular proliferation assay (alamarBlue) VCaP; assay type: cell-based; settings: Homo sapiens, 168 hours, read-out: Prostate VCaP IC50
Method: as §1, §2

MOLM-13 cells [3] = assay: MOLM-13 acute monocytic leukaemia tumour model; settings: for T/C value: day 3 to day 14, measured on day 14; for activity on tumour growth: significance P<0.05
Method: NMRI nude mice were inoculated subcutaneously in the right flank on day 0 with 2×10^6 MOLM-13 cells in 0.1 ml Matrigel. […] Practical example 1 and practical example 2 were dissolved in 40% PEG400, 5% ethanol, 25% Solutol. The substances were administered orally, daily for […] (day 3 to day 14). […] Practical examples 1 and 2 were applied at a daily dose of 200 (highest dose used), 120 or 70 mg/kg.

B16F10 cells = assay: Cellular proliferation assay (alamarBlue) B16F10; assay type: cell-based; settings: Mus musculus, B16-F10, 96 hours, read-out: Melanoma B16F10 IC50
Method: as §1, §2

MOLM-13 cells [4] = assay: Cellular proliferation assay (alamarBlue) MOLM-13; assay type: cell-based; settings: Homo sapiens, 96 hours, read-out: Leukaemia MOLM-13 IC50
Method: as §1, §2

MCF-7 cells = assay: Cellular proliferation assay (alamarBlue) MCF-7; assay type: cell-based; settings: Homo sapiens, MCF7, 96 hours, read-out: Breast MCF-7 IC50
Method: as §1, §2

[5] = oral 50 mg/kg, QD × 5, once daily
[6] = oral 50 mg/kg, QD × 5, twice daily
[7] = oral 100 mg/kg, QD × 5, once daily
[8] = oral 100 mg/kg, QD × 5, twice daily
[9] = oral 200 mg/kg, QD × 5, once daily

Cc1sc2c(c1C)C(c1ccc(Cl)cc1)=N[C@@H](CC(=O)N1C3CCC1CC(=O)C3)c1nnc(C)n1-2 [Example 1, 8-{2-[(S)-4-(4-Chlorophenyl)-2,3,9-trimethyl-6H-thieno[3,2-f][1,2,4]triazolo[4,3-a][1,4]diazepin-6-yl]acetyl}-8-azabicyclo[3.2.1]octan-3-one]
concentration at 1 h ([1]; in vivo, po, 100 mg/kg p.o., 1 h): 1470 ng/mL | unbound exposure in comparison with comparative example V1 [1]: higher unbound exposure | AUC(0-tlast) ([1]; single oral dose 100 mg/kg): 4.9 | AUC(0-tlast),norm,u ([1]; single oral dose 100 mg/kg): 0.006 kg·h/L | AUC(0-tlast),norm ([1]; single oral dose 100 mg/kg): 0.05 kg·h/L | tlast ([1]; single oral dose 100 mg/kg): 24 h | concentration at 3 h ([1]; plasma, po, 100 mg/kg p.o., 3 h): 836 ng/mL | concentration at 6 h ([1]; plasma, po, 100 mg/kg p.o., 6 h): 176 ng/mL | concentration at 24 h ([1]; plasma, po, 100 mg/kg p.o., 24 h): 1.56 ng/mL | MTD [2]: ≥ 200 mg/kg | MTD at 5 days [2]: ≥ 100 mg/kg | % maximum body weight change (day) [2, 5]: +7 (6) % | Remarks (tolerability) [2, 5]: tolerated | Drug-induced deaths (day) [2, 5]: 0/3 | % maximum body weight change (day) [2, 6]: +5 (4) % | Remarks (tolerability) [2, 6]: tolerated | Drug-induced deaths (day) [2, 6]: 0/3 | % maximum body weight change (day) [2, 7]: +6 (6) % | Remarks (tolerability) [2, 7]: tolerated | Drug-induced deaths (day) [2, 7]: 0/3 | % maximum body weight change (day) [2, 8]: −1 (6) % | Remarks (tolerability) [2, 8]: HDT tolerated | Drug-induced deaths (day) [2, 8]: 0/3 | % maximum body weight change (day) [2, 9]: +5 (6) % | Remarks (tolerability) [2, 9]: HDT tolerated | Drug-induced deaths (day) [2, 9]: 0/3 | tolerability at all doses tested [2]: well tolerated | pIC50 (MDA-MB-231 cells): 6.96 | pIC50 (MOLP-8 cells): 7.15 | pIC50 (HeLa-MaTu cells): 6.60 | pIC50 (LNCaP cells): 7.05 | pIC50 (LAPC-4 cells): 7.27 | pIC50 (VCaP cells): 7.41 | T/C value (MOLM-13 cells [3]; 70 mg/kg oral daily): 58% | activity on tumour growth (MOLM-13 cells [3]; 70 mg/kg oral daily): inactive | T/C value (MOLM-13 cells [3]; 120 mg/kg oral daily): 46% | activity on tumour growth (MOLM-13 cells [3]; 120 mg/kg oral daily): showed activity | T/C value (MOLM-13 cells [3]; 200 mg/kg oral daily): 39% | activity on tumour growth (MOLM-13 cells [3]; 200 mg/kg oral daily): inhibited tumour growth | pIC50 (B16F10 cells): 7.01 | pIC50 (MOLM-13 cells [4]): 7.04 | pIC50 (MCF-7 cells): 6.84

Cc1sc2c(c1C)C(c1ccc(Cl)cc1)=N[C@@H](CC(=O)N1CC3(COC3)C1)c1nnc(C)n1-2 [Example 2, 2-[(S)-4-(4-Chlorophenyl)-2,3,9-trimethyl-6H-thieno[3,2-f][1,2,4]triazolo[4,3-a][1,4]diazepin-6-yl]-1-(2-oxa-6-azaspiro[3.3]hept-6-yl)ethan-1-one]
Plasma concentration ([1]; 1 h): 1366.5 ng/mL | Plasma concentration ([1]; 3 h): 2694.4 ng/mL | Plasma concentration ([1]; 6 h): 1111.0 ng/mL | unbound exposure in comparison with comparative example V1 [1]: higher unbound exposure | AUC(0-tlast) ([1]; single oral dose 50 mg/kg): 10 | AUC(0-tlast),norm,u ([1]; single oral dose 50 mg/kg): 0.050 kg·h/L | AUC(0-tlast),norm ([1]; single oral dose 50 mg/kg): 0.20 kg·h/L | tlast ([1]; single oral dose 50 mg/kg): 6.0 h | MTD [2]: ≥ 200 mg/kg | MTD at 5 days [2]: ≥ 100 mg/kg | % maximum body weight change (day) [2, 5]: +5 (6) % | Remarks (tolerability) [2, 5]: tolerated | Drug-induced deaths (day) [2, 5]: 0/3 | % maximum body weight change (day) [2, 6]: +2 (6) % | Remarks (tolerability) [2, 6]: tolerated | Drug-induced deaths (day) [2, 6]: 0/3 | % maximum body weight change (day) [2, 7]: −1 (3) % | Remarks (tolerability) [2, 7]: tolerated | Drug-induced deaths (day) [2, 7]: 0/3 | % maximum body weight change (day) [2, 8]: −3 (5) % | Remarks (tolerability) [2, 8]: HDT tolerated | Drug-induced deaths (day) [2, 8]: 0/3 | % maximum body weight change (day) [2, 9]: +4 (4) % | Remarks (tolerability) [2, 9]: HDT tolerated | Drug-induced deaths (day) [2, 9]: 0/3 | tolerability at all doses tested [2]: well tolerated | pIC50 (MDA-MB-231 cells): 6.93 | pIC50 (MOLP-8 cells): 7.19 | pIC50 (HeLa-MaTu cells): 6.69 | pIC50 (LNCaP cells): 7.10 | pIC50 (LAPC-4 cells): 7.37 | pIC50 (VCaP cells): 7.24 | T/C value (MOLM-13 cells [3]; 70 mg/kg oral daily): 46% | activity on tumour growth (MOLM-13 cells [3]; 70 mg/kg oral daily): not statistically significant | T/C value (MOLM-13 cells [3]; 120 mg/kg oral daily): 46% | activity on tumour growth (MOLM-13 cells [3]; 120 mg/kg oral daily): not statistically significant | T/C value (MOLM-13 cells [3]; 200 mg/kg oral daily): 23% | activity on tumour growth (MOLM-13 cells [3]; 200 mg/kg oral daily): active | deaths in the treated group (MOLM-13 cells [3]; MOLM-13 tumour model, dose group not stated): one unexplained death | pIC50 (B16F10 cells): 7.09 | pIC50 (MOLM-13 cells [4]): 7.01 | pIC50 (MCF-7 cells): 6.94

Source: US20140213575A1, “6H-Thieno[3,2-f][1,2,4]triazolo[4,3-a][1,4]diazepines” (BAYER INTELLECTUAL PROPERTY GMBH, priority 2011, published 2014)
